# ChEMBL document CHEMBL1641370, “Novel 6,7,8,9-tetrahydro-5H-1,4,7,10a-tetraaza-cyclohepta[f]indene analogues as potent and selective 5-HT(2C) agonists for the treatment of metabolic disorders” (Bioorg Med Chem Lett, 2011)
# How the values were obtained:
# [1] = target: T1, 5-hydroxytryptamine receptor 2C (Homo sapiens, UniProt P28335); experiment: Agonist activity at human recombinant 5HT2C receptor expressed in CHOK1 cells assessed as induction of intracellular calcium release by FLIPR assay; format: functional, cell-based, CHO-K1
# T1 sequence (P28335 whole entry): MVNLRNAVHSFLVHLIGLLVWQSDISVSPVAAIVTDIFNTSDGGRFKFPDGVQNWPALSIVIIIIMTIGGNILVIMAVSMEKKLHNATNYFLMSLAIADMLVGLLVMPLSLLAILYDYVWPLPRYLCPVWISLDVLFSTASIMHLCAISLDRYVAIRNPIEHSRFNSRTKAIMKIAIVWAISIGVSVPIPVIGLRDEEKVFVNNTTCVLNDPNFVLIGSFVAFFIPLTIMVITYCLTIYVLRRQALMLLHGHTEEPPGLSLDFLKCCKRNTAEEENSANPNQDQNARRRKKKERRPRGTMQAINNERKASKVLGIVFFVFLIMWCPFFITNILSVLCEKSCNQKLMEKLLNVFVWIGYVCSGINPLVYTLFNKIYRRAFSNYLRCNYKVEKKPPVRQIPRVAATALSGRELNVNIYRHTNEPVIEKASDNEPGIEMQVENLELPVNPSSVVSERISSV
# Caco-2 = experiment: Efflux ratio of permeability from […] of human Caco2 cells; format: ADME, cell-based
# [2] = target: T2, 5-hydroxytryptamine receptor 2A (Homo sapiens, UniProt P28223); experiment: Agonist activity at human recombinant 5HT2A receptor expressed in CHOK1 cells assessed as induction of intracellular calcium release by FLIPR assay; format: functional, cell-based, CHO-K1
# [3] = Permeability from apical to basolateral side of human Caco2 cells; format: ADME, cell-based; settings: caco-2, read-out: permeability
# [4] = target: T3, 5-hydroxytryptamine receptor 2B (Homo sapiens, UniProt P41595); experiment: Agonist activity at human recombinant 5HT2B receptor expressed in CHOK1 cells assessed as induction of intracellular calcium release by FLIPR assay; format: functional, cell-based, CHO-K1
# hERG (KCNH2) = hERG (KCNH2) (Homo sapiens, UniProt Q12809); experiment: Inhibition of human ERG expressed in CHO cells at 10 uM by whole cell patch-clamp technique; format: cell-based; settings: CHO cells expressing human ERG
# [5] = target: T4, 5-hydroxytryptamine receptor 2C (Homo sapiens) (UniProt P28335); experiment: Agonist activity at human recombinant 5HT2C receptor expressed in CHOK1 cells assessed as induction of intracellular calcium release by FLIPR assay relative to 5-HT; format: functional, cell-based; settings: CHO-K1
# T4 sequence (whole entry): T1 sequence (P28335 whole entry)
# [6] = target: T2, 5-hydroxytryptamine receptor 2A; experiment: Agonist activity at human recombinant 5HT2A receptor expressed in CHOK1 cells assessed as induction of intracellular calcium release by FLIPR assay relative to 5-HT; format: functional, cell-based; settings: CHO-K1
# [7] = target: T3, 5-hydroxytryptamine receptor 2B; experiment: Agonist activity at human recombinant 5HT2B receptor expressed in CHOK1 cells assessed as induction of intracellular calcium release by FLIPR assay relative to 5-HT; format: functional, cell-based; settings: CHO-K1
# [8] = Mean residence time in Wistar rat at 30 mg/kg, po; format: ADME, organism-based; set-up: dose 30 mg/kg, route oral; settings: in vivo
# Rattus norvegicus [9] = experiment: Antiobesity activity in Wistar rat cafteria diet model assessed as weight loss at 100 mg/kg, po after 3 day relative to control; format: functional
# [10] = Ratio of drug level in CSF to fraction unbound in plasma of Wistar rat at 30 mg/kg, po at 2 hrs; format: ADME, organism-based; set-up: dose 30 mg/kg, route oral; settings: in vivo
# Rattus norvegicus [11] = experiment: Dose normalized AUC in Wistar rat at 30 mg/kg, po; format: ADME, organism-based; set-up: dose 30 mg/kg, route oral; settings: in vivo
# [12] = Clearance in Wistar rat at 10 mg/kg, iv and 30 mg/kg, po; format: ADME, organism-based; settings: in vivo
# [13] = Mean residence time in Wistar rat at 10 mg/kg, iv; format: ADME, organism-based; set-up: dose 10 mg/kg, route intravenous; settings: in vivo
# Rattus norvegicus [14] = experiment: Antiobesity activity in Wistar rat cafteria diet model assessed as weight loss at 30 mg/kg, po after 3 day relative to control; format: functional
# [15] = Volume of distribution at steady state in Wistar rat at 10 mg/kg, iv and 30 mg/kg, po; format: ADME, organism-based; settings: in vivo, read-out: Vdss
# [16] = target: Serotonin 2 receptors; 5-HT2a & 5-HT2c (Homo sapiens) (UniProt P28223+P28335); experiment: Selectivity ratio of EC50 for human recombinant 5HT2A receptor to EC50 for human recombinant 5HT2C receptor
# Homo sapiens = organism: Homo sapiens; experiment: Selectivity ratio of EC50 for human recombinant 5HT2B receptor to EC50 for human recombinant 5HT2C receptor
# T2 sequence (P28223 whole entry): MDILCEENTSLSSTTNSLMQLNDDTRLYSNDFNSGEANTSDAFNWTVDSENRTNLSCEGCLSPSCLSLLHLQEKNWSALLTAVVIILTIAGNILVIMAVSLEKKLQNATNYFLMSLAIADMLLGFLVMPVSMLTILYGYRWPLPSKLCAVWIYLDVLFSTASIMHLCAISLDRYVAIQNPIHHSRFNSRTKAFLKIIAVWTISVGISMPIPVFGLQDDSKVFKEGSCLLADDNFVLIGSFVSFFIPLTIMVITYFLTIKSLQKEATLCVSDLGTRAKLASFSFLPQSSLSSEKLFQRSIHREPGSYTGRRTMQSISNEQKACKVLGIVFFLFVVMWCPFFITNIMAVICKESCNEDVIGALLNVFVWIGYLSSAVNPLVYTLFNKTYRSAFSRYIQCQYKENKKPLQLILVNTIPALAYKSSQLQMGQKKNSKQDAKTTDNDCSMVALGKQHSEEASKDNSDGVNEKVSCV
# hERG (KCNH2), sequence (Q12809 whole entry): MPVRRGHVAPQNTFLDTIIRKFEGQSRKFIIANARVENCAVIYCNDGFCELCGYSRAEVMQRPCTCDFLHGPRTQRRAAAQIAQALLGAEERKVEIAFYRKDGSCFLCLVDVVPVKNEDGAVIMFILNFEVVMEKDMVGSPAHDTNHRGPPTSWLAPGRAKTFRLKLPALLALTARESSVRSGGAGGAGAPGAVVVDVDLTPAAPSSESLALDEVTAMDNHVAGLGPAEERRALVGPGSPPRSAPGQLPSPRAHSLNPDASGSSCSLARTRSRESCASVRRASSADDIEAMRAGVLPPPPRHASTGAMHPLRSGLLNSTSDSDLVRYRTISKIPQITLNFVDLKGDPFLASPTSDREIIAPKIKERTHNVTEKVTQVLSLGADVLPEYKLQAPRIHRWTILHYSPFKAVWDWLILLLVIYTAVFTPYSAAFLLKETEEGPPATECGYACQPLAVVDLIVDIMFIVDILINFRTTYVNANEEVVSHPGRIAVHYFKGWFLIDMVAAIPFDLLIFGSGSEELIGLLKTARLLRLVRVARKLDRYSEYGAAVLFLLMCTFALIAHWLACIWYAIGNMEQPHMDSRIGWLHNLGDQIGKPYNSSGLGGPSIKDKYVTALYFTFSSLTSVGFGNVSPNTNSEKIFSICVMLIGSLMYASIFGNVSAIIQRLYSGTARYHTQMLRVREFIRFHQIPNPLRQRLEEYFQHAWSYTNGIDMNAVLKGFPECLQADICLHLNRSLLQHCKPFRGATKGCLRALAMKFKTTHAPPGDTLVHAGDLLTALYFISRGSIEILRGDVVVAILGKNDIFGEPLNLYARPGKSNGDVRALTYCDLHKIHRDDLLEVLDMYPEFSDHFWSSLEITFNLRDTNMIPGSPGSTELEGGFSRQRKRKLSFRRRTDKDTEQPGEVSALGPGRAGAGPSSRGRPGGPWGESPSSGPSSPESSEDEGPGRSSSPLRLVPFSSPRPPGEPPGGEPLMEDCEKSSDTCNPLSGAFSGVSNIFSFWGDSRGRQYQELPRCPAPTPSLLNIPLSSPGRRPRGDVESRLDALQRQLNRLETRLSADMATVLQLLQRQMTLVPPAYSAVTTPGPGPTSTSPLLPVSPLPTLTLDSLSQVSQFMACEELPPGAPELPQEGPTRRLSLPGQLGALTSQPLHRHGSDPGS
# T3 sequence (P41595 whole entry): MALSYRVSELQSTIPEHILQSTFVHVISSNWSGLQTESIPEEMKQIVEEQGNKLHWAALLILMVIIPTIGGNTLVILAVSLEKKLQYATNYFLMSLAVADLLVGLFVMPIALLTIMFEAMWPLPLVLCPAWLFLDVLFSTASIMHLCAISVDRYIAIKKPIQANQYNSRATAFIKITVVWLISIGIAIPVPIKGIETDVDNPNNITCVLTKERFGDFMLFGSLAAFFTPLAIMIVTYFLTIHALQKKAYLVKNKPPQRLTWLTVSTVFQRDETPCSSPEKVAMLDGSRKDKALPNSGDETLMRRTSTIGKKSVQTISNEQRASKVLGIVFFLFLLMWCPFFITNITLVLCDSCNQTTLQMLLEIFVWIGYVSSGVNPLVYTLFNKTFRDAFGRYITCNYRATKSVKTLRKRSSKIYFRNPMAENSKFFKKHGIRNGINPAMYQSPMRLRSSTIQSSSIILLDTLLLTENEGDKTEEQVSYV
# Serotonin 2 receptors; 5-HT2a & 5-HT2c (Homo sapiens), sequence (P28223 whole entry, looked up, one chain of several): as the sequence (P28223 whole entry) above
SMILES,EC50 [1] [µM],Ratio (Caco-2),EC50 [2] [µM],Papp A→B [3] [×10⁻⁶ cm/s],EC50 [4] [µM],inhibition at 10 µM (hERG (KCNH2)) [%],Emax [5] [%],Emax [6] [%],Emax [7] [%],MRT [8] [h],Activity (Rattus norvegicus [9]) [%],Ratio [10],AUC (Rattus norvegicus [11]) [µM·h],clearance [12] [mL/min/kg],MRT [13] [h],Activity (Rattus norvegicus [14]) [%],Vd [15] [L/kg],Ratio EC50 [16],Ratio EC50 (Homo sapiens)
c1ccc(OC2CN(c3c4c(nc5ccnn35)CCNCC4)C2)cc1,0.018,2.3,7.77,13.3,0.218,81,95,22,58,,,,,,,,,,
Fc1ccc(OC2CN(c3c4c(nc5ccnn35)CCNCC4)C2)cc1,0.023,,0.003,,0.163,95,95,8,43,,,,,,,,,,
COc1ccc(OC2CN(c3c4c(nc5ccnn35)CCNCC4)C2)cc1,0.095,1.3,2.63,10.4,0.503,93,76,21,31,> 24,3.3,0.15,0.72,14,13,3.2,11,,
c1cc2nc3c(c(N4CCCCC4)n2n1)CCNCC3,4.56,,0.585,,2.85,,139,10,28,,,,,,,,,,
c1cc2nc3c(c(N4CCCC4)n2n1)CCNCC3,0.764,,2.31,,2.24,,110,15,36,,,,,,,,,,
c1cc(OC2CN(c3c4c(nc5ccnn35)CCNCC4)C2)ccn1,0.574,,1.23,,1.16,,102,27,79,,,,,,,,,,
CCNc1c2c(nc3ccnn13)CCNCC2,0.063,,0.138,,0.602,,104,62,97,,,,,,,,,,
Fc1cccc(OC2CN(c3c4c(nc5ccnn35)CCNCC4)C2)c1,0.025,1.6,0.032,7.9,0.013,93,78,5,23,,,,,,,,,,
c1cncc(OC2CN(c3c4c(nc5ccnn35)CCNCC4)C2)c1,0.211,,0.063,,1.48,,99,94,73,,,,,,,,,,
c1ccc(OC2CN(c3c4c(nc5ccnn35)CCNCC4)C2)nc1,0.037,2.2,5.17,10.3,0.706,78,93,29,71,,,,,,,,,,
CCN(C)c1c2c(nc3ccnn13)CCNCC2,0.362,,,,0.842,,105,,69,,,,,,,,,,
CC(=O)N(C)c1ccc(OC2CN(c3c4c(nc5ccnn35)CCNCC4)C2)cc1,0.188,6.9,2.05,0.62,1.18,5,96,35,60,,,,,,,,,,
Fc1ccccc1OC1CN(c2c3c(nc4ccnn24)CCNCC3)C1,0.005,,0.648,,0.094,,85,15,69,,,,,,,,,,
COc1ccccc1OC1CN(c2c3c(nc4ccnn24)CCNCC3)C1,0.084,,2.68,,0.379,88,84,48,89,,,,,,,,,,
COc1cccc(OC2CN(c3c4c(nc5ccnn35)CCNCC4)C2)c1,0.065,2.1,0.04,10.1,0.215,97,88,9,43,,,,,,,,,,
c1cc2nc3c(c(N4CCC4)n2n1)CCNCC3,0.0054,,2.35,,0.094,,103,51,97,,,,,,,,,> 100,< 20
O=C1Cc2cc(OC3CN(c4c5c(nc6ccnn46)CCNCC5)C3)ccc2N1,0.0084,,0.762,,0.073,11,99,86,82,,,,,,,,,,
